Test results published in ChEMBL document CHEMBL5365413, “Optimizing metabolic stability of phosphodiesterase 5 inhibitors: Discovery of a potent N-(pyridin-3-ylmethyl)quinoline derivative targeting synaptic plasticity” (Bioorg Med Chem Lett, 2023).
Active and inactive are the calls of the source. The rule behind the calls is not given here.

Experiments:
[1] = Selectivity index, ratio of IC50 for inhibition of PDE6 (unknown origin) to IC50 for inhibition of human recombinant PDE5A1
[2] = Inhibition of PDE9 (unknown origin) by fluorescent based assay; parameters: species or system Homo sapiens
[3] = Inhibition of PDE8 (unknown origin) by fluorescent based assay; parameters: species or system Homo sapiens
[4] = Inhibition of PDE11 (unknown origin) by fluorescent enzymatic assay; parameters: species or system Homo sapiens
[5] = Inhibition of PDE6 (unknown origin) by fluorescent based assay; parameters: species or system Homo sapiens
[6] = Inhibition of PDE3 (unknown origin) by fluorescent based assay; parameters: species or system Homo sapiens
[7] = Metabolic stability in human liver microsomes assessed as half life; assay type: ADME, Microsome
[8] = Inhibition of PDE1 (unknown origin) by fluorescent based assay; parameters: species or system Homo sapiens
[9] = Inhibition of PDE10 (unknown origin) by fluorescent based assay; parameters: species or system Homo sapiens
[10] = target: cGMP-specific 3',5'-cyclic phosphodiesterase (Homo sapiens, UniProt O76074); assay: Inhibition of human recombinant PDE5A1 by fluorescence based assay
[11] = Inhibition of PDE2 (unknown origin) by fluorescent based assay; parameters: species or system Homo sapiens
[12] = Metabolic stability in human liver microsomes assessed as intrinsic clearance; assay type: ADME, Microsome
[13] = Selectivity index, ratio of IC50 for inhibition of PDE9 (unknown origin) to IC50 for inhibition of human recombinant PDE5A1
[14] = Selectivity index, ratio of IC50 for inhibition of PDE2 (unknown origin) to IC50 for inhibition of human recombinant PDE5A1
[15] = Selectivity index, ratio of IC50 for inhibition of PDE1 (unknown origin) to IC50 for inhibition of human recombinant PDE5A1
Hippocampus [16] = assay: Neuroprotective activity against o-Tau perfused mouse hippocampus tissue assessed as restoration of synaptic plasticity by measuring hippocampal […] at 50 nM for 10 min followed by tetanus stimulation and measured for 2 hrs by electrophysiology analysis; assay type: functional, tissue-based; conditions: time 130.0 min
[17] = Selectivity index, ratio of IC50 for inhibition of PDE11 (unknown origin) to IC50 for inhibition of human recombinant PDE5A1
Phosphodiesterase 7 = Phosphodiesterase 7 (Homo sapiens, UniProt Q13946+Q9NP56); assay: Inhibition of PDE7 (unknown origin) by fluorescent based assay; assay type: protein assay
[18] = Selectivity index, ratio of IC50 for inhibition of PDE8 (unknown origin) to IC50 for inhibition of human recombinant PDE5A1
Hippocampus [19] = assay: Neuroprotective activity against mouse hippocampus tissue assessed as restoration of synaptic plasticity by measuring residual potentiation at 50 nM for 10 min followed by tetanus stimulation and measured for 2 hrs by electrophysiology analysis relative to control; assay type: functional, tissue-based; conditions: time 130.0 min
[20] = Selectivity index, ratio of IC50 for inhibition of PDE3 (unknown origin) to IC50 for inhibition of human recombinant PDE5A1
[21] = Selectivity index, ratio of IC50 for inhibition of PDE7 (unknown origin) to IC50 for inhibition of human recombinant PDE5A1
Phosphodiesterase 4 = Phosphodiesterase 4 (Homo sapiens, UniProt P27815+Q08499+Q07343+Q08493); assay: Inhibition of PDE4 (unknown origin) by fluorescent based assay; assay type: protein assay
[22] = Selectivity index, ratio of IC50 for inhibition of PDE4 (unknown origin) to IC50 for inhibition of human recombinant PDE5A1
[23] = Selectivity index, ratio of IC50 for inhibition of PDE10 (unknown origin) to IC50 for inhibition of human recombinant PDE5A1
Hippocampus [24] = assay: Neuroprotective activity against o-Tau perfused mouse hippocampus tissue assessed as restoration of synaptic plasticity by measuring residual potentiation at 50 nM for 10 min followed by tetanus stimulation and measured for 2 hrs by electrophysiology analysis relative to control; assay type: functional, tissue-based; conditions: time 130.0 min

Compound: COc1ncc(CNc2c(CO)cnc3c(C4CC4)cc(C#N)cc23)cc1Cl
- Ratio IC50 [1]: 1.9
- IC50 [2]: Not Active
- IC50 [3]: Not Active
- IC50 [4]: Not Active
- IC50 [5]: 58 nM
- IC50 [6]: Not Active
- t1/2 [7]: 19.5 min
- IC50 [8]: Not Active
- IC50 [9]: Not Active
- IC50 [10]: 30 nM
- IC50 [11]: > 10000 nM
- CLH [12]: 72 µL/min/mg

Compound: Cn1ccc2cc(CNc3c(CO)cnc4c(C5CC5)cc(C#N)cc34)ccc21
- IC50 [10]: 2800 nM

Compound: COc1cc(CNc2c(CO)cnc3c(C4CC4)cc(C#N)cc23)ccn1
- t1/2 [7]: 28.8 min
- IC50 [10]: 180 nM
- CLH [12]: 48 µL/min/mg

Compound: COc1ccc(CNc2c(CO)cnc3c(C4CC4)cc(C#N)cc23)cc1Cl
- t1/2 [7]: 20.5 min
- CLH [12]: 80 µL/min/mg

Compound: N#Cc1cc(C2CC2)c2ncc(CO)c(NCc3ccnc(Cl)c3)c2c1
- t1/2 [7]: 17.3 min
- IC50 [10]: 820 nM
- CLH [12]: 80 µL/min/mg

Compound: COc1cc(CNc2c(CO)cnc3c(C4CC4)cc(C#N)cc23)cc(OC)c1OC
- IC50 [10]: 3400 nM

Compound: CCOC(=O)c1cnc2c(C3CC3)cc(C#N)cc2c1NCc1ccc(OC)nc1
- IC50 [10]: 1300 nM

Compound: COc1ccc(CNc2c(CO)cnc3c(C4CC4)cc(C#N)cc23)cn1
- Ratio IC50 [13]: > 500
- Ratio IC50 [1]: 13
- IC50 ([2]; read-out: IC50): > 10000 nM
- IC50 ([3]; read-out: IC50): > 10000 nM
- IC50 ([4]; read-out: IC50): > 10000 nM
- IC50 [5]: 260 nM
- IC50 ([6]; read-out: IC50): > 10000 nM
- t1/2 [7]: 44.6 min
- Ratio IC50 [14]: 9
- Ratio IC50 [15]: > 500
- IC50 ([8]; read-out: IC50): > 10000 nM
- Activity (Hippocampus [16]): Active
- IC50 ([9]; read-out: IC50): > 10000 nM
- Ratio IC50 [17]: > 500
- IC50 [11]: 180 nM
- CLH [12]: 31 µL/min/mg
- IC50 (Phosphodiesterase 7): > 10000 nM
- Ratio IC50 [18]: > 500
- Activity (Hippocampus [19]): inactive
- Ratio IC50 [20]: > 500
- Ratio IC50 [21]: > 500
- IC50 (Phosphodiesterase 4): > 10000 nM
- Ratio IC50 [22]: > 500
- Ratio IC50 [23]: > 500
- Activity (Hippocampus [24]): Active

Compound: N#Cc1cc(C2CC2)c2ncc(CO)c(NCc3ccc4c(c3)OCO4)c2c1
- t1/2 [7]: 15.7 min
- IC50 [10]: 190 nM
- CLH [12]: 88 µL/min/mg

Compound: [2H]C([2H])(Nc1c(CO)cnc2c(C3CC3)cc(C#N)cc12)c1ccc(OC)c(Cl)c1
- t1/2 [7]: 16.4 min
- IC50 [10]: 5 nM
- CLH [12]: 85 µL/min/mg
